A short description of experiment [1]: Second-order rate constant of the reaction with glutathione, fluorescent HPLC. Particulars: 1 eq. glutathione (0.5 mM), 50 mM ABC buffer, 1 mM EDTA, pH 8.5. The method, then:
The second-order rate constant of the reaction between glutathione and EDANS-phosphinates CS265 and CS266 was determined according to the following procedure: The EDANS-phosphinate was reacted with 1 eq. of glutathione (0.5 mM) in the presence of 50 mM ABC buffer (ammonium bicarbonate buffer) and 1 mM EDTA at pH 8.5. The reactions were performed in a volume of 0.1 ml. The first sample (t=0) was drawn before the addition of glutathione. Samples were taken after 1, 2, 5, 12, 22 and 35 min (CS266) or after 30, 60, 120, 240 and 1440 min (CS265). Samples were drawn in a volume of 10 μl and immediately diluted into 200 μl of 50 mM NaOAc buffer at pH 3.5, to stop the reaction. Those samples were subjected to fluorescent HPLC analyses, injecting 50 μl each.

Experiment [2] addresses T1, eGFP C70M S147C (Aequorea victoria, UniProt P42212, C70M/F64L/H231L/S147C/S65T).
T1 construct: protease cleavage site highlighted with subscripts; His-tag (N); protease cleavage site (N); made in house
The experiment in a line: Tandem-mass spectrometry of tryptically digested labelled eGFP. Particulars: 10 eq. phosphinate, PBS pH 7.4, 10% DMSO. The method, then: At first phosphinate-1 was reacted with an eGFP mutant containing a single addressable Cys (eGFP C70M S147C). Using 10 eq. phosphinate in PBS pH 7.4 containing 10% DMSO as a co-solvent, the reaction reached completion after 30 minutes (FIG. 5d).
1 in PBS (30 min, r.t.) followed by purification via 0.5 mL Zeba™ Spin Desalting Columns with 7K MWCO (Thermo Fisher Scientific, USA) into phosphate-buffer (20 mM, pH 7.5). Complete labeling was verified via intact-protein MS.

Experiment [3] concerns the target T1, eGFP C70M S147C. Kind of experiment: Second-order rate constant of the reaction with eGFP, intact protein-MS. Particulars: one equivalent GFP, Tris-buffer (pH 8.3), 90 μM, room-temperature. The method, then: Subsequently, this new compound-class was compared with other Cys-reactive electrophiles in terms of reaction kinetics. The estimation of reaction-kinetics is particularly challenging for bis-reactive reagents because the second thiol addition interferes with the analysis. […] Consequently, 2 was reacted with one equivalent GFP in Tris-buffer (pH 8.3) at a concentration of 90 μM at room-temperature.
Determination of the second-order rate constant of the reaction between eGFP (C70M S147C) and phosphinate 2. […] Reactions were carried out in triplicate. 90 μl eGFP (0.1 mM) were mixed with 10 μl of a 0.9 mM solution of phosphinate 2 in DMSO. Samples were drawn after 60, 90, 150, 210 and 300 minutes and analyzed via intact protein-MS. […] Calculated by the intensity of the deconvoluted mass in relation to the internal standard eGFP (C70M). […] The slope corresponds to the second order rate constant. Shown are mean and error of three independent measurements.

SMILES strings stand for the structures.

We go through three compounds from patent publication US20240350655A1, “THIOL-CONJUGATION WITH UNSATURATED PHOSPHORUS(V) COMPOUNDS” (FORSCHUNGSVERBUND BERLIN E.V., priority 2021, published 2024).

T1 sequence (P42212 with tags, fused parts or gaps F64L/S65T/C70M/S147C/H231L): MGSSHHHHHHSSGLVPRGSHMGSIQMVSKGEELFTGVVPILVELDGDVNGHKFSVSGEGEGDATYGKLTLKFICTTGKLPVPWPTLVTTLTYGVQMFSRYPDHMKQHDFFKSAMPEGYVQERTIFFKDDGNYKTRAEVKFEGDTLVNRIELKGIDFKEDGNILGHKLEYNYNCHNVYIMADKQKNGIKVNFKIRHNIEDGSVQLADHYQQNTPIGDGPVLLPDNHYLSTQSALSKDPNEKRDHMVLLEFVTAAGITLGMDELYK

Turning to `C#CP(=O)(OCC)c1cn(CCC(=O)NCCNc2cccc3c(S(=O)(=O)O)cccc23)nn1` (stereo not drawn) [CS266, EDANS-1,2,3-triazol-ethyl-ethynylphosphinate], the “reaction kinetics relative to CS265” value in experiment [1] is reported as “roughly ten times faster than with CS265”.
Take `C#CP(=O)(C#C)OCC` [compound 1, ethyl diethynyl phosphinate]: the “amino acids modified (MS/MS)” value on eGFP C70M S147C [2] is listed as “no amino acid other than Cys was modified”.
Consider `C#CCCOP(=O)(C#C)C#C` [compound 2, but-3-yn-1-yl-diethynylphosphinate], for which the second-order rate constant on eGFP C70M S147C [3] is about 0.47 M⁻¹ s⁻¹.
